Experiment: Solubility of sorbitol in ethanol
Type: physicochemical
Text: Sugar alcohols can become heavily supersaturated upon cooling. When water is slowly replaced with ethanol, there can be a significant change in the maximum concentration at which the solute is completely soluble. In this example, blends of a 70% sorbitol solution and ethanol were made.

SMILES: OC[C@@H](O)[C@@H](O)[C@H](O)[C@@H](O)CO [sorbitol]
- clarity of sorbitol/ethanol blend (70% sorbitol solution and ethanol, ratio 70:30): completely clear
- clarity of sorbitol/ethanol blend (blends with greater than 30% ethanol): crystallization of the sorbitol

— patent US10898873B2, “Lecithin compositions and methods of making and using such lecithin compositions” (Archer Daniels Midland Company, priority 2015, dated 2021)
